CC50 data for 7 compounds are collected here from ChEMBL document CHEMBL1129644, “Nucleosides with a twist. Can fixed forms of sugar ring pucker influence biological activity in nucleosides and oligonucleotides?” (J Med Chem, 1996).

≈ marks a conversion by molar mass, not a printed value.

The nature of data set [1]: Compound was tested for cytotoxicity against HSV-2 (herpes simplex type 2) of HFF (human foreskin fibroblasts) cells by cytopathogenic effect (CPE) inhibition assay. The class given is cell-based. The conditions noted are these: HFF (human foreskin fibroblast) cells. A general note: Protection from cytopathic effect is a common read-out in antiviral testing.
A short description of data set [2]: Compound was tested for cytotoxicity against HCMV (human cytomegalovirus) of HFF(human foreskin fibroblasts) cells by cytopathogenic effect (CPE) inhibition assay. The class given is cell-based. The settings on record: HFF (human foreskin fibroblast) cells.
Data set [3] is described as follows: Compound was tested for cytotoxicity against HSV-1 (herpes simplex type-1) of HFF (human foreskin fibroblasts) cells by cytopathogenic effect (CPE) inhibition assay. The class given is cell-based. The conditions noted are these: HFF (human foreskin fibroblast) cells.
Data set [4] can be described thus: (§1) Compound was tested for cytotoxicity against HSV-2 (herpes simplex type-2) of HFF (human foreskin fibroblasts) cells in different experiment. In kind it is cell-based. The settings on record: HFF (human foreskin fibroblast) cells.
A short description of data set [5]: Compound was tested for cytotoxicity against HSV-1 (herpes simplex type-1) of HFF (human foreskin fibroblasts) cells. The conditions noted are these: HFF (human foreskin fibroblast) cells. In kind it is cell-based.
A short description of data set [6]: Compound was tested for cytotoxicity against HSV-1 (herpes simplex type-1) of HFF (human foreskin fibroblasts) cells in different experiment. In kind it is cell-based. The settings on record: HFF (human foreskin fibroblast) cells.
Data set [7] can be described thus: (§2) Compound was tested for cytotoxicity against HSV-2 (herpes simplex type-2) of HFF (human foreskin fibroblasts) cells. In kind it is cell-based. The conditions noted are these: HFF (human foreskin fibroblast) cells.
Data set [8] is described as follows: as §1. The settings on record: human alphaherpesvirus 2, HFF (human foreskin fibroblast) cells.
Data set [9] in a line: as §2. The conditions noted are these: human alphaherpesvirus 2, HFF (human foreskin fibroblast) cells.

With `Nc1ccn([C@H]2C[C@H](O)[C@@]3(O)CC23)c(=O)n1` (stereo not given in full), the CC50 turned out to be 96 mg/L (≈ 430 µM) in [1], 8.8 mg/L (≈ 39.4 µM) in [2] and 68 mg/L (≈ 305 µM) in [3].
As for `Cc1cn(C2C[C@H](O)[C@@H](O)C2)c(=O)[nH]c1=O`, the CC50 in data set [4] and in [5] was greater than 10 mg/L throughout.
Turning to `Nc1nc(O)c2ncn([C@H]3C[C@H](O)[C@@]4(O)CC34)c2n1` (stereo not given in full), the CC50 is greater than 100 mg/L in [1], 64.3 mg/L (≈ 244 µM) in data set [2] and greater than 100 mg/L in data set [3].
With `O=c1ccn([C@H]2C[C@H](O)[C@@]3(O)CC23)c(=O)[nH]1` (stereo not given in full), the CC50 in data set [1], in data set [2] and in data set [3] was greater than 100 mg/L each time.
As for `Cc1cn([C@H]2C[C@H](O)[C@@]3(O)CC23)c(=O)[nH]c1=O` (stereo not given in full), the CC50 in data set [1] is greater than 100 mg/L; in data set [2] it was 63.7 mg/L (≈ 267 µM); in data set [3], greater than 100 mg/L; in [6], greater than 20 mg/L; in [4] it was greater than 20 mg/L; in [7], greater than 20 mg/L. In [5], this compound showed a CC50 greater than 20 mg/L.
Take `Nc1ncnc2c1ncn2[C@H]1C[C@H](O)[C@@]2(O)CC12` (stereo not given in full): the CC50 in [1], in data set [2] and in [3] was greater than 100 mg/L throughout.
Take `Cc1cn([C@@]23CC2[C@H](O)[C@@H](O)C3)c(=O)[nH]c1=O` (stereo not given in full): the CC50 in data set [8] is greater than 20 mg/L; in [9] it was greater than 50 mg/L; in data set [6], greater than 20 mg/L; in data set [5], greater than 50 mg/L.

What is called CC50 is the concentration at which the toxic effect on the cells reaches its halfway point. Read a low CC50 as greater toxicity to the cells.
